IC50 data for four compounds are collected here from ChEMBL document CHEMBL3997849, “Modulation of the Inhibitors of Apoptosis Proteins (IAPs) Activities for Cancer Treatment” (ACS Med Chem Lett, 2017).

Experiment [1] can be described thus: Inhibition of His-tagged XIAP BIR2-3 (125 to 356 residues) C202A/C213G double mutant (unknown origin) using fluorescein labeled SMAC peptide as substrate after 60 mins by HTRF assay. The arrangement: species or system Homo sapiens. Background: Time-resolved FRET reads energy transfer from a long-lived donor to a nearby acceptor.
Experiment [2] concerns the target E3 ubiquitin-protein ligase XIAP (Homo sapiens, UniProt P98170). Description: Inhibition of His-tagged XIAP BIR3 (241 to 356 residues) (unknown origin) using fluorescein labeled SMAC peptide as substrate after 60 mins by HTRF assay.

pIC50: −log10 of the molar value.

E3 ubiquitin-protein ligase XIAP, sequence (P98170 whole entry, the tested form may be a part): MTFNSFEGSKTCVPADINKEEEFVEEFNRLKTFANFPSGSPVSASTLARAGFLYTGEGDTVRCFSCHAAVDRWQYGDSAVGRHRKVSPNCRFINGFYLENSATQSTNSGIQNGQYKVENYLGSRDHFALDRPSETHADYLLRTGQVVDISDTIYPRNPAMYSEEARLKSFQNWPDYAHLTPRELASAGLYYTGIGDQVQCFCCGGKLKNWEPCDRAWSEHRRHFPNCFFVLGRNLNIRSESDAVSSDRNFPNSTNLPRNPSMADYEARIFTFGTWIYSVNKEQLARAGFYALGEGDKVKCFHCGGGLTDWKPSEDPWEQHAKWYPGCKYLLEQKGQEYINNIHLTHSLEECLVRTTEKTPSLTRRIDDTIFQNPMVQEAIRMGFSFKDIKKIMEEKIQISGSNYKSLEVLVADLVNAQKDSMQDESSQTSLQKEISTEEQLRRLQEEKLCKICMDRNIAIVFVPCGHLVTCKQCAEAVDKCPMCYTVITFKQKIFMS

A word on the pIC50: it is the IC50 on a negative log10 scale, so that one unit is a factor of ten. In experiment [1], `CN[C@@H](C)C(=O)N[C@H](C(=O)N[C@@H](Cc1ccc([C@H]2C[C@@H](C(=O)N[C@@H]3CCCc4ccccc43)N(C(=O)[C@@H](NC(=O)[C@H](C)NC)C(C)(C)C)C2)cc1)C(=O)N[C@@H]1CCCc2ccccc21)C(C)(C)C` showed a negative logarithm of the IC50 (pIC50) of 8.17.

The compound `CN[C@@H](C)C(=O)N[C@H](C(=O)N1C[C@@H](c2ccc(C[C@H](NC(=O)[C@@H](NC(=O)[C@H](C)NC)C(C)(C)SCC(=O)N(C)C[C@@H](O)CO)C(=O)N[C@@H]3CCCc4ccccc43)cc2)C[C@H]1C(=O)N[C@@H]1CCCc2ccccc21)C(C)(C)C` gave a pIC50 in experiment [1] of 7.91.

`CN[C@@H](C)C(=O)N[C@H](C(=O)NC(Cc1ccc(NC(=O)c2ccc(C(=O)NC3C[C@@H](C(=O)N[C@@H]4CCCc5ccccc54)N(C(=O)[C@@H](NC(=O)[C@H](C)NC)C(C)(C)C)C3)cc2)cc1)C(=O)N[C@@H]1CCCc2ccccc21)C(C)(C)C` (stereo partly specified): the pIC50 in experiment [2] is 6.92; in experiment [1] it was 8.02.

For the compound `CN[C@@H](C)C(=O)N[C@H](C(=O)N1C[C@@H](c2ccc(CC(NC(=O)[C@@H](NC(=O)[C@H](C)NC)C(C)(C)SCC(=O)NC(CO)CO)C(=O)N[C@@H]3CCCc4ccccc43)cc2)C[C@H]1C(=O)N[C@@H]1CCCc2ccccc21)C(C)(C)C` (stereo partly specified), the negative-log IC50 (pIC50) in experiment [2] is 8.85; in experiment [1], 8.09.
